Results reported in EP2229935A1, “Peptide derivatives or pharmaceutically acceptable salts thereof, method for producing the same, use of said derivatives and pharmaceutical composition” (Nebolsin, Vladimir Evgenievich, priority 1997, dated 1999).
Like-named read-outs stand apart in the source and are kept apart here. Marks after values point to notes of the source that are not given here.

Legend:
white mongrel male rats [1] = assay: Carrageenan paw edema, oral administration (series I); assay type: in vivo
Procedure: (§1) Experiment was carried out on white mongrel male rats weighing 280-300 g. Carrageenan-induced edema was caused according to the method of Winter et al. [[inter et al. In: De Rosa M., Giroud J.P., Willoughby D.A. Studies of the mediators of the acute inflammatory reponse induced in rats in different sites by carrageenan and turpentine. […] Paw volume measurement was done using a plethysmograph (Ugo Basile) 1, 3 and 4 hours after carrageenan administration. Inhibition of inflammatory reaction expressed in percent, was calculated according to the formula: 100-[(R-L(exper.))/(L):(R-L(control))/(L)x100](%) [formula] where R - the right paw volume, L - the left paw volume.
Series I of experiment. […] The reference drug Naproxene was once administered at a dose 20 µg/kg 1 hour before edema induction. Each group included 10 animals.

[2] = tested on: hepatic P-450 cytochrome system; assay: Hexenal sleep duration in mice; assay type: in vivo; details: CBF1 mice, oral 3 days, control 25.91 ± 1.57
Procedure: Change in Hexenal sleep (HS) duration is the in vivo measurable index of hepatic P-450 cytochrome system condition.
Studies were carried out on male mice of the lines BALB/c*h75, C57B1/6, CBA, DBA/2, first generation CBF1 and BDF1 hybrides, with initial mass 18-20 g, each group including 10 mice; and on mongrel male guinea pigs with initial mass 250-300 g, each group including 24 animals. All the test compounds (from II to LII) were administered orally in drinking water and for three days at doses 50 and 500 µg/kg. Hexenal hydrochloride at a dose […] of animal mass was administered 24 hours after the last drug administration, except for line BALB/c*h75 mice, which were administered Hexenal at a dose 60 µg/kg at the same terms, and guinea pigs for which Hexenal dose was 30 µg/kg. HS duration was determined in minutes.

hydroxyl radical = assay: Hydroxyl radical formation in the Fenton reagent (chemiluminescence); assay type: biochemical
superoxide anion-radical = assay: Superoxide anion-radical formation in the xantine-xantine oxidase system (chemiluminescence); assay type: biochemical
Procedure: Effect of the compounds of general formula (I) on change in chemiluminescence (CL) determined by hydroxyl radical ( OH) and superoxide anion-radical (O2-), in the model chemical and enzymatic systems.
5 to 10 ml of the test compounds dissolved in water were at needed concentration introduced into a cuvette. A total sample volume was 0.5 ml. • B. Superoxide anion-radical in the mixture of xantine and xantine oxidase [Afanas'ev I., Suslova T., Cheremisina Z. et al. Study of antioxidant properties of metal aspartates.
Incubation medium comprised 5 mM KH2PO4; 0.2 IU/ml xantine oxidase. Xantine at concentration 1 mM was introduced into sample through a dispencer. Luceginine (0.2 mM) was used in this system as luminiscence sensitizer.
CL signal indication was performed by its integration every 10 seconds for 5 minutes. CL flash recording duration after mixing ingredients, depended on a particular process kinetics. For each system, CL light sum (mV) was determined in the control samples without preparations (I-) and in samples comprising respective concentrations of preparations (I+). To estimate CL inhibition (activation) degree, the I+/I- ratio (in relative units) was found in the studied systems.
AOF formation and effect of the test compounds on this process were recorded on the Luminometer-1251 instrument (LKB, Sweden).
Because of such "distension" of the kinetic curve, chemiluminescence light sum was recorded during the first 3-5 minutes which reflected a total amount of light quantums produced in the system till achieving the maximum CL intensity values.

[3] = tested on: Lewis pulmonary carcinoma (LLC); assay: Lewis pulmonary carcinoma growth; assay type: in vivo; details: mice with LLC, day 12; for Growth inhibition percent: compound in drinking water; for Tumor volume (mm^3): compound in drinking water from 24 hours after transplantation
Procedure: Experiments were carried out on male mice with initial body mass 18-20 g. Each group included 10 animals. […] Administration of compounds II, III, IX, X, XII, XIV, XV, XVI, XVII, XIX, XXII, XLVII in drinking water was commenced 24 hours following transplantation and continued till the end of experiment. Effect of the compounds on Lewis rat pulmonary carcinoma (LLC) was estimated by day 12 of experiment by change in tumor volume expressed in mm^3.

[4] = tested on: Lewis pulmonary carcinoma (LLC); assay: Lewis pulmonary carcinoma spontaneous metastasizing, oral administration; assay type: in vivo; details: BDF1 female mice with LLC, oral 24 days; for Mean number of metastases: day 25
Procedure: Each group included 15 animals. 0.3 ml of LLC tumor tissue suspension was intramuscularly injected to mice. Henks solution was used as a solvent. […] Moscow (1992) 13 pp.]. […]

[5] = tested on: Strain Aichi of type A human influenza virus; assay type: in vivo; details: for Survival rate in percent: series with Control - 2 (34.5); for Protection degree in percent: series with Control - 2
white mongrel male rats [6] = assay: Carrageenan paw edema, cutaneous gel application (series 2); assay type: in vivo; details: for Volume of paws (conditional units) Right: 0.1 ml of 1% gel on right paw, 4 hours after carrageenan; for Volume of paws (conditional units) left: 1% gel group, left paw; for Volume of paws (conditional units) left / Inflammation inhibition (%) / Volume increment: 4 hours; for Inflammation inhibition (%) / Volume increment: 1% gel
Procedure: as §1
Series 2 of experiment. 2% carrageenan solution was injected sublaterally into paws of rats. In 1 minute 0.1 ml of gel comprising the test compounds were applied on the right paw. Gel base consisted of propylene glycol dissolved in the mixture of water and ethanol. Concentration of the compounds in the gel was 1%. Volume of paws was measured 4 hours after carrageenan administration.

mongrel male rats = assay: Hypolipidemic activity: experimental hyperlipidemia (atherogenic load); details: atherogenic diet, oral last four days; for HDL-CS / LDL-CS+ VLDL-CS / Total CS / Triglycerides: blood; for Kcs: cholesterol index;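 for all read-outs here: serum drawn 18 h after the final dose from rats deprived of food over that interval, groups of 10 animals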
Procedure: Hypolipidemic activity of the compounds of general formula (I) was studied on the model of experimental hyperlipidemia [Arichi H., Kumura H.O. Effects of stibens compounds of roots of polygonum cuspidatium on the lipid metabolism. […] Each group of animals included 10 rats. […] Blood samples were taken for analysis 18 hours after the last administration of the test substances during which period food was taken away from rats.
The following parameters were determined: total cholesterol (total CS); high density lipoprotein cholesterol (HDL-CS); low density lipoprotein cholesterol and very low density lipoprotein cholesterol (LDL-CS and VLDL-CS); triglycerides (TG). Blood serum CS level was determined according to the Ilk method [Biochemical examination in the clinic. […] HDL-CS level was measured in supernatant following heparine-manganese precipitation of LDL+VLDL [Titov V.N., Brener E.D., Khaltaiev N.G., Zadoya A.A., Tvorogova M.G. A method and diagnostic significance of cholesterol level study in α-lipoproteins. […] LDL-CS level determination was carried out by calculation according to the formula presented in the work Friedwald W.T. [Friedwald W.T., Levy K.J., Leus R. Fat transport in lipoproteins: an integrated approach to mechanism and disorders.
To assess the effect of the test compounds on the ratio of atherogenic and antiatherogenic blood serum lipoproteins, cholesterol index (Kcs) was calculated according to the formula presented in the work [Klimov A.N., Nikulcheva N.G. Lipoproteins, dylipoproteinemias and atherosclerosis.
Blood serum TG level was determined using the conventional method [Friedwald W.T., Levy R.I., Fredrickson D.S. Estimation of concentration of low-density lipoprotein cholesterol in plasma, without use of preparative ultracentrifuge.

[7] = intragastral four times 50 µg/kg
[8] = 1 µM, control of the series as in the table
[9] = 0.01 mM, control of the series as in the table
[10] = 0.1 mM, control of the series as in the table
[11] = 1 mM, control of the series 7839 ± 171, 1120 ± 163, 4974 ± 283 or 1332 ± 172
[12] = 1 mM, control of the series 5616 ± 173, 5391 ± 195, 7290 ± 128 or 6776 ± 150
[13] = series with Control - 2 (9.1), […]

O=C(O)CCC(=O)NCCc1c[nH]cn1 [compound II, N-SUCCINYLHISTAMINE]
Inflammation inhibition (%) (white mongrel male rats [1]; [7]): 12%
Volume increment (white mongrel male rats [1]; [7]): 0.64 ±0.05*^!
Volume of paws (conditional units) left (white mongrel male rats [1]; [7]): 1.28 ± 0.28 conditional units
Volume of paws (conditional units) Right (white mongrel male rats [1]; intragastral four times 50 µg/kg 72, 48, 24 and 1 hour before): 1.92 ± 0.65 conditional units
Hexenal sleep duration (minutes) ([2]; 500 µg/kg): 21.72 ± 1.24* minutes
relative effect: I+/I- (hydroxyl radical; 1 µM): 0.86
Chemiluminiscence intensity (mV) + σn-1 (hydroxyl radical; [8]): 961 ± 42 mV
relative effect: I+/I- (hydroxyl radical; 0.01 mM): 0.69
Chemiluminiscence intensity (mV) + σn-1 (hydroxyl radical; [9]): 772 ± 44 mV
relative effect: I+/I- (hydroxyl radical; 0.1 mM): 0.62
Chemiluminiscence intensity (mV) + σn-1 (hydroxyl radical; [10]): 693 ± 42 mV
relative effect: I+/I- (hydroxyl radical; 1 mM): 0.16
Chemiluminiscence intensity (mV) + σn-1 (hydroxyl radical; [11]): 175 ± 21 mV
relative effect: 1+/I- (superoxide anion-radical; 0.01 mM): 0.97
Chemiluminiscence intensity (mV) + σn-1 (superoxide anion-radical; [9]): 5229 ± 140 mV
relative effect: 1+/I- (superoxide anion-radical; 0.1 mM): 0.88
Chemiluminiscence intensity (mV) + σn-1 (superoxide anion-radical; [10]): 4753 ± 89 mV
relative effect: 1+/I- (superoxide anion-radical; 1 mM): 0.58
Chemiluminiscence intensity (mV) + σn-1 (superoxide anion-radical; [12]): 3143 ± 156 mV
Growth inhibition percent [3]: 61%
Tumor volume (mm^3) [3]: 1025 ± 150** mm^3
Mean number of metastases ([4]; 50 µg/kg): 44.3 ± 8.0
Mean number of metastases ([4]; 500 µg/kg): 32.9 ± 4.8*^2
Metastasizing inhibition percent ([4]; 50 µg/kg): 5.5%
Metastasizing inhibition percent ([4]; 500 µg/kg): 30.0%

CCCCCCCNC(=O)Cc1c[nH]cn1 [XXXIII, N-(IMIDAZOLYL-4-ACETHYL)-HEPTHYLAMINE]
Hexenal sleep duration (minutes) ([2]; 500 µg/kg): 19.82 ± 2.12* minutes
Survival rate in percent ([5]; 50 µg/kg orally): 63.3%
Survival rate in percent ([5]; 500 µg/kg orally): 76.6*^2%
Protection degree in percent ([5]; 50 µg/kg orally): 28.8%
Protection degree in percent ([5]; 500 µg/kg orally): 76.6%

NCCC(=O)NCCc1c[nH]c2ccccc12 [compound XIII]
Volume of paws (conditional units) Right (white mongrel male rats [6]): 2.29 ± 0.18 conditional units
Volume of paws (conditional units) left (white mongrel male rats [6]): 1.82 ± 0.34 conditional units
Inflammation inhibition (%) (white mongrel male rats [6]): 35%
Volume increment (white mongrel male rats [6]): 0.47 ± 0.08
HDL-CS (mongrel male rats; 50 µg/kg): 23,9±1,9
LDL-CS+ VLDL-CS (mongrel male rats; 50 µg/kg): 52,4±3,9**^A
Total CS (mongrel male rats; 50 µg/kg): 76,3±5,5*^A
Triglycerides (mongrel male rats; 50 µg/kg): 201,2±8,7***^A
HDL-CS (mongrel male rats; 500 µg/kg): 27,8±2,3*^A
LDL-CS+ VLDL-CS (mongrel male rats; 500 µg/kg): 41,5±2,9***^A
Total CS (mongrel male rats; 500 µg/kg): 69,3±3,7***^A
Triglycerides (mongrel male rats; 500 µg/kg): 190,0±11,7***^A
Kcs (mongrel male rats; 50 µg/kg): 2,19±0,16***^A
Kcs (mongrel male rats; 500 µg/kg): 1,49±0,1***^A

Cl.O=C(O)CCCCC(=O)NCCc1c[nH]cn1 [IV, N-ADIPINYLHISTAMINE CHLOROHYDRATE]
Hexenal sleep duration (minutes) ([2]; 50 µg/kg): 20.39 ± 1.59* minutes

O=C1CC[C@@H](C(=O)NCCc2c[nH]cn2)N1 [LII, Pyroglutamylhistamine]
Hexenal sleep duration ([2]; 50 µg/kg): 21.14 ± 1.39 min

NCCCC(=O)NCCc1c[nH]cn1 [compound XLVII, γ-Aminobutyrylhistamine]
Growth inhibition percent [3]: 45%
Tumor volume (mm^3) [3]: 826 ± 119* mm^3
MLT [5, 13]: 10.0 days
MLT, days [5, 13]: 13.0*^2 days
Survival rate in percent ([5]; 50 µg/kg orally): 83.3*^2%
Survival rate in percent ([5]; 500 µg/kg orally): 79.3*^2%
Protection degree in percent ([5]; 50 µg/kg orally): 48.8%
Protection degree in percent ([5]; 500 µg/kg orally): 44.8%
HDL-CS (mongrel male rats; 50 µg/kg): 44,1±1,9**^A
LDL-CS+ VLDL-CS (mongrel male rats; 50 µg/kg): 42,4±1,7***^A
Total CS (mongrel male rats; 50 µg/kg): 86,5±3,9*^A
HDL-CS (mongrel male rats; 500 µg/kg): 40,8±4,8
LDL-CS+ VLDL-CS (mongrel male rats; 500 µg/kg): 50,8±3,6**^A
Total CS (mongrel male rats; 500 µg/kg): 90,0±2,4
Triglycerides (mongrel male rats; 500 µg/kg): 116,7±10,8*^A
Kcs (mongrel male rats; 50 µg/kg): 0,96±0,04***^A
Kcs (mongrel male rats; 500 µg/kg): 1,27±0,09

COC(=O)[C@@H](N)CCC(=O)N[C@@H](Cc1c[nH]cn1)C(=O)O.Cl.Cl [compound XI, γ-L-GLUTAMYL HISTIDINE α-METHYL ETHER DICHLOROHYDRATE]
Hexenal sleep duration (minutes) ([2]; 500 µg/kg): 17.71 ± 0.66*** minutes
Chemiluminiscence intensity (mV) + σn-1 (hydroxyl radical; [8]): 1116 ± 90 mV
Chemiluminiscence intensity (mV) + σn-1 (hydroxyl radical; [9]): 1124 ± 113 mV
relative effect: I+/I- (hydroxyl radical; 1 mM): 0.50
Chemiluminiscence intensity (mV) + σn-1 (hydroxyl radical; [11]): 557 ± 52 mV
relative effect: 1+/I- (superoxide anion-radical; 0.1 mM): 0.82
Chemiluminiscence intensity (mV) + σn-1 (superoxide anion-radical; [10]): 4621 ± 224 mV
relative effect: 1+/I- (superoxide anion-radical; 1 mM): 0.40
Chemiluminiscence intensity (mV) + σn-1 (superoxide anion-radical; [12]): 2263 ± 278 mV

N[C@@H](Cc1c[nH]cn1)C(=O)NCCC(=O)O [compound XXXVI, N-L-HISTIDYL-β-ALANINE]
Volume of paws (conditional units) Right (white mongrel male rats [6]): 2.23 ± 0.42 conditional units
Volume of paws (conditional units) left (white mongrel male rats [6]): 1.86 ± 0.16 conditional units
Inflammation inhibition (%) (white mongrel male rats [6]): 50%
Volume increment (white mongrel male rats [6]): 0.37 ± 0.07

O=C(O)Cc1ccccc1Nc1c(Cl)cccc1Cl [Voltaren, reference compound]
Volume of paws (conditional units) Right (white mongrel male rats [6]): 1.99 ± 0.24 conditional units
Volume of paws (conditional units) left (white mongrel male rats [6]): 1.63 ± 0.26 conditional units
Inflammation inhibition (%) (white mongrel male rats [6]): 48%
Volume increment (white mongrel male rats [6]): 0.40 ± 0.03

COC(=O)[C@H](Cc1c[nH]cn1)NC(=O)CCCC(=O)O [IX, N-GLUTARYL-L-HISTIDINE METHYL ETHER]
Hexenal sleep duration (minutes) ([2]; 50 µg/kg): 16.71 ± 0.94** minutes
Hexenal sleep duration ([2]; 500 µg/kg): 20.76 ± 1.32 min
relative effect: I+/I- (hydroxyl radical; 0.01 mM): 0.95
Chemiluminiscence intensity (mV) + σn-1 (hydroxyl radical; [9]): 1069 ± 72 mV
relative effect: I+/I- (hydroxyl radical; 0.1 mM): 0.59
Chemiluminiscence intensity (mV) + σn-1 (hydroxyl radical; [10]): 664 ± 47 mV
relative effect: I+/I- (hydroxyl radical; 1 mM): 0.20
Chemiluminiscence intensity (mV) + σn-1 (hydroxyl radical; [11]): 225 ± 9 mV
Growth inhibition percent [3]: 10%
Tumor volume (mm^3) [3]: 2372 ± 323 mm^3
Mean number of metastases ([4]; 500 µg/kg): 38.5 ± 5.7*^3
Metastasizing inhibition percent ([4]; 500 µg/kg): 24.0%
HDL-CS (mongrel male rats; 50 µg/kg): 29,7±3,6*^A
LDL-CS+ VLDL-CS (mongrel male rats; 50 µg/kg): 48,7±4,4**^A
Total CS (mongrel male rats; 50 µg/kg): 78,4±4,4*^A
Triglycerides (mongrel male rats; 50 µg/kg): 24,5±20,2
HDL-CS (mongrel male rats; 500 µg/kg): 20,1±1,6
LDL-CS+ VLDL-CS (mongrel male rats; 500 µg/kg): 52,0±3,4**^A
Total CS (mongrel male rats; 500 µg/kg): 72,1±3,9**^A
Triglycerides (mongrel male rats; 500 µg/kg): 201.8±8,1***^A
Kcs (mongrel male rats; 50 µg/kg): 1,64±0,16***^A
Kcs (mongrel male rats; 500 µg/kg): 2,59±0,17***^A

O=C(O)CCCC(=O)NCCc1ccccc1 [XXI]
relative effect: I+/I- (hydroxyl radical; 0.01 mM): 0.81
Chemiluminiscence intensity (mV) + σn-1 (hydroxyl radical; [9]): 4036 ± 186 mV
relative effect: I+/I- (hydroxyl radical; 0.1 mM): 0.66
Chemiluminiscence intensity (mV) + σn-1 (hydroxyl radical; [10]): 3265 ± 184 mV
relative effect: I+/I- (hydroxyl radical; 1 mM): 0.05
Chemiluminiscence intensity (mV) + σn-1 (hydroxyl radical; [11]): 228 ± 72 mV
relative effect: 1+/I- (superoxide anion-radical; 0.1 mM): 0.89
Chemiluminiscence intensity (mV) + σn-1 (superoxide anion-radical; [10]): 6460 ± 166 mV
relative effect: 1+/I- (superoxide anion-radical; 1 mM): 0.58
Chemiluminiscence intensity (mV) + σn-1 (superoxide anion-radical; [12]): 4232 ± 146 mV
Growth inhibition percent [3]: 25%
Tumor volume (mm^3) [3]: 1023 ± 207 mm^3
